We go through eight compounds from ChEMBL document CHEMBL1201862, “PubChem BioAssay data set” (2004).

Some test systems named below: SF-295; EKVX; NCI-H460; SNB-75; SNB-19; M19-MEL; OVCAR-8; SK-MEL-2; MOLT-4; OVCAR-3; LXFL 529; U-251; HCT-15; SN12C; KM12; SW-620; UACC-62; DU-145; MDA-MB-231; NCI/ADR-RES.
What all share (experiment): inhibition of tumour cell growth, NCI panel, 48 h

Molecules are shown by their SMILES.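 Each compound was tested at five concentrations against cells in 96-well plates for 48 hours. GI50: concentration for 50% inhibition of growth.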 Calls of active or inactive are those of the source. Rule as the data show it: active = GI50 up to about 1.1 µM and inactive = higher. Where only a bound is given, the exact number is not on record here.

Regarding `CN1CCc2c1nc(-c1cccnc1)c1c2N(C)CC1`, the GI50 with SF-295, in the test on EKVX, with NCI-H460, in the test on SNB-75, in the test on SNB-19 and in the test with M19-MEL was > 100 µM (inactive) throughout. The GI50 with OVCAR-8 was > 100 µM (inactive); in the test with SK-MEL-2, > 100 µM (inactive); in the test on MOLT-4, > 100 µM (inactive); in the test on OVCAR-3 it was 65.8 µM (inactive); with LXFL 529, > 100 µM (inactive); in the test with U-251 it was > 100 µM (inactive). The GI50 was above 100 µM with HCT-15; > 100 µM (inactive) in the test on SN12C; > 100 µM (inactive) with KM12; > 100 µM (inactive) with SW-620; > 100 µM (inactive) in the test with UACC-62.
For the compound `C=CCC1(CN(C)C)CC/C(=C\c2cc(OC)c(OC)c(OC)c2)C1=O` (stereo not given), the GI50 in the test on SF-295 was 38.1 µM (inactive); in the test with EKVX it was 12.2 µM (inactive); with NCI-H460 it was 18.8 µM (inactive); with SNB-75, 62.2 µM (inactive); in the test on SNB-19 it was 34 µM (inactive); in the test on M19-MEL, 37.1 µM (inactive). Moreover, the GI50 with OVCAR-8 is 22.8 µM (inactive); with SK-MEL-2 it was 42.8 µM (inactive); in the test with MOLT-4 it was 27.5 µM (inactive); in the test on OVCAR-3, 24 µM (inactive); in the test with LXFL 529 it was 17.9 µM (inactive); in the test on U-251, 23 µM (inactive). The GI50 in the test on HCT-15 was 20 µM; in the test on SN12C, 22.3 µM (inactive); in the test with KM12, 17.4 µM (inactive); in the test on SW-620, 18.7 µM (inactive); in the test with UACC-62, 21.3 µM (inactive).
Take `O=CN/C=C\c1cc(O)ccc1O`: the GI50 in the test with SF-295 was 28.4 µM (inactive); in the test on EKVX it was 15.5 µM (inactive); in the test on NCI-H460 it was 10 µM (inactive); in the test with SNB-75, > 100 µM (inactive); in the test with SNB-19 it was > 100 µM (inactive); in the test with M19-MEL, 11.8 µM (inactive). In addition, the GI50 in the test on OVCAR-8 was 15.6 µM (inactive); in the test with SK-MEL-2, > 48.9 µM (inactive); in the test with MOLT-4, 18.2 µM (inactive); in the test on OVCAR-3 it was 12.2 µM (inactive); in the test with LXFL 529 it was 10.8 µM (inactive); in the test with U-251 it was 32 µM (inactive). Further, the GI50 in the test with HCT-15 was 9.31 µM; with SN12C, 14 µM (inactive); in the test on KM12 it was > 22.5 µM (inactive); in the test on SW-620, 12.6 µM (inactive); with UACC-62, 11.6 µM (inactive).
With `Cc1ccc2nc3c(C)c(Cl)c(=O)cc-3sc2c1`, the GI50 is 23.3 µM (inactive) in the test on SF-295; 38.8 µM (inactive) in the test on EKVX; 23.1 µM (inactive) in the test on NCI-H460; 44 µM (inactive) in the test with DU-145; 14.5 µM (inactive) with SNB-75; 24 µM (inactive) in the test on SNB-19. In addition, the GI50 in the test on M19-MEL is 4.68 µM (inactive); in the test with OVCAR-8, 11.2 µM (inactive); with SK-MEL-2, 17.2 µM (inactive); with MOLT-4, 4.98 µM (inactive); in the test with OVCAR-3, 6.97 µM (inactive); with LXFL 529 it was 4.94 µM (inactive). In addition, the GI50 in the test on U-251 was 12.7 µM (inactive); in the test on HCT-15, 10.6 µM; in the test on SN12C it was 26.6 µM (inactive); in the test on KM12, 23.1 µM (inactive); with SW-620 it was 28.6 µM (inactive); with MDA-MB-231 it was 3.35 µM (inactive). The GI50 in the test on UACC-62 is 8.57 µM (inactive).
Regarding `O=C/C(=C(/Cl)c1ccc(O)cc1)c1ccccc1`, the GI50 is 33.3 µM (inactive) in the test on SF-295; 28.2 µM (inactive) with EKVX; 33.2 µM (inactive) in the test on NCI-H460; 62.5 µM (inactive) in the test on DU-145; 15.3 µM (inactive) in the test with SNB-75; 41.2 µM (inactive) in the test with SNB-19. Further, the GI50 in the test on M19-MEL is 19.7 µM (inactive); in the test with OVCAR-8, 35.9 µM (inactive); in the test on SK-MEL-2 it was 32.7 µM (inactive); with MOLT-4, 16.6 µM (inactive); in the test with OVCAR-3 it was 17.1 µM (inactive); in the test on LXFL 529, 25.4 µM (inactive). The GI50 is 24 µM (inactive) with U-251; 16.1 µM in the test with HCT-15; 24.6 µM (inactive) in the test with SN12C; 35.6 µM (inactive) in the test on KM12; 27.6 µM (inactive) in the test with SW-620; 13.2 µM (inactive) with UACC-62.
Regarding `Cc1ccccc1NC(=O)CC(=O)NNCC(=O)Nc1nnc(-c2ccccc2)s1`, the GI50 was > 100 µM (inactive) in the test on SF-295; 49.7 µM (inactive) in the test with EKVX; 48.2 µM (inactive) with NCI-H460; 24.7 µM (inactive) in the test with SNB-75; 79.1 µM (inactive) in the test on SNB-19; > 100 µM (inactive) in the test on M19-MEL. Besides, the GI50 in the test with OVCAR-8 was 54.2 µM (inactive); in the test with SK-MEL-2, > 100 µM (inactive); with MOLT-4, 35.7 µM (inactive); in the test on OVCAR-3, 31.4 µM (inactive); with LXFL 529, 39.2 µM (inactive); in the test on U-251 it was 50 µM (inactive). For the same compound, the GI50 in the test on HCT-15 is 58.2 µM; with SN12C, > 100 µM (inactive); in the test with KM12 it was > 100 µM (inactive); with SW-620 it was 87.7 µM (inactive); in the test on UACC-62 it was > 100 µM (inactive).
As for `CC1[C@@]2(CCC(C)(C)O2)O[C@@H]2C=C3C4CCC5Cc6nc7c(nc6C[C@@]5(C)C4C[C@H](O)[C@@]3(C)[C@]12O)CC1CCC2C3=C[C@H]4O[C@@]5(O[C@@](C)(CO)C[C@@H]5O)C(C)[C@@]4(O)[C@]3(C)[C@@H](O)CC2[C@]1(C)C7` (stereo not given in full), the GI50 is 0.00807 µM (active) in the test with SF-295; 0.175 µM (active) in the test on EKVX; 0.0388 µM (active) in the test with NCI-H460; 0.00762 µM (active) in the test with SNB-75; 0.224 µM (active) in the test on SNB-19; 0.991 µM (active) with M19-MEL. In addition, the GI50 with OVCAR-8 is 0.753 µM (active); in the test on SK-MEL-2, 0.0783 µM (active); with MOLT-4, 0.0217 µM (active); with OVCAR-3 it was 0.736 µM (active); in the test with LXFL 529 it was 0.0254 µM (active); in the test on U-251, 0.0266 µM (active). For the same compound, the GI50 with HCT-15 is 0.169 µM; in the test with SN12C it was 0.975 µM (active); in the test with KM12, 0.109 µM (active); in the test with SW-620, 0.064 µM (active); with NCI/ADR-RES, 0.619 µM (active); in the test with UACC-62, 0.0508 µM (active).
Take `CC(C)C1=Cc2ccc3c(c2C(=O)C1=O)CCCC3(C)C` [MILTIRONE]: the GI50 is 17.2 µM (inactive) with SF-295; 14.5 µM (inactive) in the test with EKVX; 17.3 µM (inactive) in the test with NCI-H460; 15.3 µM (inactive) in the test on SNB-75; 17.2 µM (inactive) in the test on SNB-19; 2.56 µM (inactive) in the test on M19-MEL. The GI50 is 4.29 µM (inactive) in the test with OVCAR-8; 17 µM (inactive) in the test on SK-MEL-2; 2.19 µM (inactive) in the test on MOLT-4; 2.58 µM (inactive) with OVCAR-3; 1.86 µM (inactive) in the test with LXFL 529; 14.2 µM (inactive) in the test with U-251. Besides, the GI50 in the test on HCT-15 is 1.99 µM; in the test on SN12C, 5.56 µM (inactive); with KM12, 16.1 µM (inactive); with SW-620 it was 3.15 µM (inactive); in the test on UACC-62 it was 5.66 µM (inactive).
